Tested on: 945468-187-T-J2-PDC spheroids viability
Test: Anticancer human tumor 945468-187-T-J2-PDC patient-derived rectal carcinoma cell line growth inhibition [PI3K]
Details: spheroids with HUVEC and MSC; for IC50: curve of first compound; for viability, T/C: stronger effect = lower value
Outline: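 Targeted small molecules plus PI3K inhibitors, half-log dose series from Cmax (default top 10 microM), were applied to heterotypic spheroids of cancer cells with HUVEC and MSCs. Viability indicated growth inhibition.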
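Further: spheroids exposed to compounds for seven days before reading.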

Work on `CC1(C)CCC(Nc2ncc(C(F)(F)F)c(-c3c[nH]c4c(P(C)(C)=O)c(C#N)ccc34)n2)CN1` (centres undefined) + CC(Nc1ncnc2nc[nH]c12)c1cc2cccc(Cl)c2c(=O)n1-c1ccccc1 yielded an IC50 (second compound 0.0316 µM) of 667 nM, an IC50 (second compound 0.1 µM) of 605 nM and an IC50 (second compound 0.316 µM) of 736 nM. It also gave an IC50 (second compound 1 µM) of 685 nM, an IC50 (second compound 3.16 µM) of 665 nM and an IC50 (second compound 10 µM) of 548 nM. It also gave a viability, T/C (second compound 0.0316 µM, first compound 0.0316 µM) of 91.5%, a viability, T/C (second compound 0.0316 µM, first compound 0.1 µM) of 95.5% and a viability, T/C (second compound 0.0316 µM, first compound 0.316 µM) of 77.8%. It also gave a viability, T/C (second compound 0.0316 µM, first compound 1 µM) of 35%, a viability, T/C (second compound 0.0316 µM, first compound 3.16 µM) of 30.3% and a viability, T/C (second compound 0.0316 µM, first compound 10 µM) of 29.3%. It also gave a viability, T/C (second compound 0.1 µM, first compound 0.0316 µM) of 95.6%, a viability, T/C (second compound 0.1 µM, first compound 0.1 µM) of 92.4% and a viability, T/C (second compound 0.1 µM, first compound 0.316 µM) of 66.3%. It also gave a viability, T/C (second compound 0.1 µM, first compound 1 µM) of 37.2%, a viability, T/C (second compound 0.1 µM, first compound 3.16 µM) of 33.9% and a viability, T/C (second compound 0.1 µM, first compound 10 µM) of 30.5%. The viability, T/C (second compound 0.316 µM, first compound 0.0316 µM) was 89.7%, the viability, T/C (second compound 0.316 µM, first compound 0.1 µM) was 86.9% and the viability, T/C (second compound 0.316 µM, first compound 0.316 µM) was 63.7%. It also gave a viability, T/C (second compound 0.316 µM, first compound 1 µM) of 44.8%, a viability, T/C (second compound 0.316 µM, first compound 3.16 µM) of 35.1% and a viability, T/C (second compound 0.316 µM, first compound 10 µM) of 28.1%. The viability, T/C (second compound 1 µM, first compound 0.0316 µM) was 104%, the viability, T/C (second compound 1 µM, first compound 0.1 µM) was 81.5% and the viability, T/C (second compound 1 µM, first compound 0.316 µM) was 56.9%. For the same compound, the viability, T/C (second compound 1 µM, first compound 1 µM) was 40.7%, the viability, T/C (second compound 1 µM, first compound 3.16 µM) was 46.3% and the viability, T/C (second compound 1 µM, first compound 10 µM) was 25.6%. It also gave a viability, T/C (second compound 3.16 µM, first compound 0.0316 µM) of 92.4%, a viability, T/C (second compound 3.16 µM, first compound 0.1 µM) of 82.4% and a viability, T/C (second compound 3.16 µM, first compound 0.316 µM) of 69.2%. It also gave a viability, T/C (second compound 3.16 µM, first compound 1 µM) of 38.5%, a viability, T/C (second compound 3.16 µM, first compound 3.16 µM) of 34.9% and a viability, T/C (second compound 3.16 µM, first compound 10 µM) of 32.4%. The viability, T/C (second compound 10 µM, first compound 0.0316 µM) was 125%, the viability, T/C (second compound 10 µM, first compound 0.1 µM) was 76.3% and the viability, T/C (second compound 10 µM, first compound 0.316 µM) was 60.4%. For the same compound, the viability, T/C (second compound 10 µM, first compound 1 µM) was 42.8%, the viability, T/C (second compound 10 µM, first compound 3.16 µM) was 39% and the viability, T/C (second compound 10 µM, first compound 10 µM) was 21.5%.
For `Cn1cnc2c(F)c(Nc3ccc(Br)cc3Cl)c(C(=O)NOCCO)cc21` + COc1c(OCCCN2CCOCC2)ccc2c3n(c(=NC(=O)c4cnc(N)nc4)nc12)CCN3, the IC50 (second compound 0.00316 µM) was > 3000 nM, the IC50 (second compound 0.01 µM) was > 3000 nM and the IC50 (second compound 0.0316 µM) was 2950 nM. For the same compound, the IC50 (second compound 0.1 µM) was 657 nM, the IC50 (second compound 0.316 µM) was < 9.49 nM and the IC50 (second compound 1 µM) was < 9.49 nM. The viability, T/C (second compound 0.00316 µM, first compound 0.00949 µM) was 99.9%, the viability, T/C (second compound 0.00316 µM, first compound 0.03 µM) was 129% and the viability, T/C (second compound 0.00316 µM, first compound 0.0949 µM) was 109%. It also gave a viability, T/C (second compound 0.00316 µM, first compound 0.3 µM) of 94.6%, a viability, T/C (second compound 0.00316 µM, first compound 0.949 µM) of 85.4% and a viability, T/C (second compound 0.00316 µM, first compound 3 µM) of 81.5%. For the same compound, the viability, T/C (second compound 0.01 µM, first compound 0.00949 µM) was 125%, the viability, T/C (second compound 0.01 µM, first compound 0.03 µM) was 146% and the viability, T/C (second compound 0.01 µM, first compound 0.0949 µM) was 109%. For the same compound, the viability, T/C (second compound 0.01 µM, first compound 0.3 µM) was 94.1%, the viability, T/C (second compound 0.01 µM, first compound 0.949 µM) was 92.5% and the viability, T/C (second compound 0.01 µM, first compound 3 µM) was 67.5%. The viability, T/C (second compound 0.0316 µM, first compound 0.00949 µM) was 95%, the viability, T/C (second compound 0.0316 µM, first compound 0.03 µM) was 111% and the viability, T/C (second compound 0.0316 µM, first compound 0.0949 µM) was 85.4%. The viability, T/C (second compound 0.0316 µM, first compound 0.3 µM) was 98.6%, the viability, T/C (second compound 0.0316 µM, first compound 0.949 µM) was 71.9% and the viability, T/C (second compound 0.0316 µM, first compound 3 µM) was 49.6%. The viability, T/C (second compound 0.1 µM, first compound 0.00949 µM) was 102%, the viability, T/C (second compound 0.1 µM, first compound 0.03 µM) was 94.9% and the viability, T/C (second compound 0.1 µM, first compound 0.0949 µM) was 88.8%. For the same compound, the viability, T/C (second compound 0.1 µM, first compound 0.3 µM) was 74.1%, the viability, T/C (second compound 0.1 µM, first compound 0.949 µM) was 38.3% and the viability, T/C (second compound 0.1 µM, first compound 3 µM) was 17.7%. It also gave a viability, T/C (second compound 0.316 µM, first compound 0.00949 µM) of 39.9%, a viability, T/C (second compound 0.316 µM, first compound 0.03 µM) of 40% and a viability, T/C (second compound 0.316 µM, first compound 0.0949 µM) of 34.1%. The viability, T/C (second compound 0.316 µM, first compound 0.3 µM) was 21.9%, the viability, T/C (second compound 0.316 µM, first compound 0.949 µM) was 16.3% and the viability, T/C (second compound 0.316 µM, first compound 3 µM) was 6.67%. For the same compound, the viability, T/C (second compound 1 µM, first compound 0.00949 µM) was 20%, the viability, T/C (second compound 1 µM, first compound 0.03 µM) was 18.6% and the viability, T/C (second compound 1 µM, first compound 0.0949 µM) was 18.1%. For the same compound, the viability, T/C (second compound 1 µM, first compound 0.3 µM) was 11.3%, the viability, T/C (second compound 1 µM, first compound 0.949 µM) was 10.4% and the viability, T/C (second compound 1 µM, first compound 3 µM) was 5.87%.
